Here are results for 4 molecules from patent US6492559B1, “Alkylated aminoether surfactants” (Air Products and Chemicals, Inc., priority 1998, dated 2002).

Holding throughout (assay type): physicochemical
A short description of data set [1]: Foam test based upon ASTM D 1173-53. To be noted: 0.1 wt % solution. As to the method: The foaming properties of 0.1 wt % solutions of the reductive alkylation products of the products of this invention were examined using a procedure based upon ASTM D 1173-53. In this test, a 0.1 wt % solution of the surfactant is added from an elevated foam pipette to a foam receiver containing the same solution. The foam height is measured at the completion of the addition (“Initial Foam Height”) and the time required for the foam to dissipate is recorded (“Time to 0 Foam”). This test provides a comparison between the foaming characteristics of various surfactant solutions. In general, in coatings, inks, and agricultural formulations, foam is undesirable because is complicates handling and can lead to coating and print defects, and to inefficient application of agricultural materials.

The nature of data set [2]: Dynamic surface tension of aqueous solutions, maximum bubble pressure method. The source says: where n is 2-6, preferably 2-4; m is 0-4, preferably 0-2; and p and q are 2-6, preferably 2 or 3; and R and R′ independently are an alkyl group comprising 5 to 18 carbons, preferably 5 to 8 carbons which is branched or in which the point of attachment to nitrogen is on a nonterminal carbon, for the reduction of equilibrium and dynamic surface tension in water-based compositions containing an organic compound, particularly coating, ink, and agricultural compositions containing organic compounds such as polymeric resins, herbicides, pesticides or plant growth modifying agents. […] The maximum-bubble-pressure method of measuring surface tension is described in Langmuir 1986, 2, 428-432, which is incorporated by reference.
Dynamic surface tension data were obtained for aqueous solutions of the reductive alkylation product of the dialkylated aminoethylether of Example 1 using the maximum bubble pressure method at bubble rates from 0.1 bubbles/second (b/s) to 20 b/s. […] In practical terms, high bubble rates correspond to high printing speeds in lithographic printing, high spray or roller velocities in coating applications, and rapid application rates for agricultural products.

The next data set can be described thus: Solubility in water.

SMILES strings stand for the structures.

As for `CC(C)CC(C)NCCCOCCCNC(C)CC(C)C` (stereo not shown) [APE/MIBK2], the “Initial Foam Height” value in data set [1] was found to be 1.0 cm. For the same molecule, the “Time to 0 Foam” value in data set [1] is on record as 2 s. For the same molecule, the “Dynamic Surface Tension” value in data set [2] (0.1 wt % in water, 0.1 b/s) is on record as 30.8 dyne/cm; in data set [2] (0.1 wt % in water, 1 b/s), 31.3 dyne/cm; in data set [2] (0.1 wt % in water, 6 b/s) it was 32.6 dyne/cm; in data set [2] (0.1 wt % in water, 15 b/s), 34.4 dyne/cm; in data set [2] (0.1 wt % in water, 20 b/s), 34.9 dyne/cm; in data set [2] (0.15 wt % in water, 0.1 b/s), 29.3 dyne/cm. The “Dynamic Surface Tension” value in data set [2] (0.15 wt % in water, 1 b/s) was 29.9 dyne/cm; in data set [2] (0.15 wt % in water, 6 b/s) it was 30.1 dyne/cm; in data set [2] (0.15 wt % in water, 15 b/s) it was 32.9 dyne/cm; in data set [2] (0.15 wt % in water, 20 b/s), 33.3 dyne/cm.
Turning to `CC(C)CC(C)NCCCOCCOCCOCCCNC(C)CC(C)C` (stereo not shown) [BAPEE/MIBK2], the “Initial Foam Height” value in data set [1] is recorded as 3.1 cm. Further, the “Time to 0 Foam” value in data set [1] is 5 s. The “Dynamic Surface Tension” value in data set [2] (0.1 wt % in water, 0.1 b/s) came to 39.2 dyne/cm; in data set [2] (0.1 wt % in water, 1 b/s), 39.7 dyne/cm; in data set [2] (0.1 wt % in water, 6 b/s) it was 40.8 dyne/cm; in data set [2] (0.1 wt % in water, 15 b/s), 42.0 dyne/cm; in data set [2] (0.1 wt % in water, 20 b/s), 42.2 dyne/cm; in data set [2] (0.5 wt % in water, 0.1 b/s), 30.6 dyne/cm. The “Dynamic Surface Tension” value in data set [2] (0.5 wt % in water, 1 b/s) is 30.7 dyne/cm; in data set [2] (0.5 wt % in water, 6 b/s) it was 31.0 dyne/cm; in data set [2] (0.5 wt % in water, 15 b/s), 31.8 dyne/cm; in data set [2] (0.5 wt % in water, 20 b/s) it was 32.2 dyne/cm.
As to `CC(C)CC(C)NCCCOCCOCCCNC(C)CC(C)C` (stereo not shown) [BAPE/MIBK2], the “Initial Foam Height” value in data set [1] is 2.6 cm. Further, the “Time to 0 Foam” value in data set [1] was found to be 8 s. Further, the “Dynamic Surface Tension” value in data set [2] (0.1 wt % in water, 0.1 b/s) is 35.5 dyne/cm; in data set [2] (0.1 wt % in water, 1 b/s), 36.0 dyne/cm; in data set [2] (0.1 wt % in water, 6 b/s) it was 37.2 dyne/cm; in data set [2] (0.1 wt % in water, 15 b/s), 38.7 dyne/cm; in data set [2] (0.1 wt % in water, 20 b/s), 39.2 dyne/cm; in data set [2] (0.2 wt % in water, 0.1 b/s), 31.6 dyne/cm. The “Dynamic Surface Tension” value amounted to 32.0 dyne/cm in data set [2] (0.2 wt % in water, 1 b/s); 32.9 dyne/cm in data set [2] (0.2 wt % in water, 6 b/s); 33.8 dyne/cm in data set [2] (0.2 wt % in water, 15 b/s); 34.1 dyne/cm in data set [2] (0.2 wt % in water, 20 b/s); 29.7 dyne/cm in data set [2] (0.5 wt % in water, 0.1 b/s); 29.8 dyne/cm in data set [2] (0.5 wt % in water, 1 b/s). For the same molecule, the “Dynamic Surface Tension” value in data set [2] (0.5 wt % in water, 6 b/s) turned out to be 30.1 dyne/cm; in data set [2] (0.5 wt % in water, 15 b/s), 30.8 dyne/cm; in data set [2] (0.5 wt % in water, 20 b/s), 31.0 dyne/cm. Moreover, in “Solubility in water”, the “solubility (in words)” value is recorded as “relatively high solubility”.
With `CC(C)CC(C)NCCOCCNC(C)CC(C)C` (stereo not shown) [AEE/MIBK2], the “Dynamic Surface Tension” value came to 37.9 dyne/cm in data set [2] (0.03 wt % in water, 0.1 b/s); 39.0 dyne/cm in data set [2] (0.03 wt % in water, 1 b/s); 42.8 dyne/cm in data set [2] (0.03 wt % in water, 6 b/s); 47.9 dyne/cm in data set [2] (0.03 wt % in water, 15 b/s); 48.2 dyne/cm in data set [2] (0.03 wt % in water, 20 b/s); 34.7 dyne/cm in data set [2] (0.05 wt % in water, 0.1 b/s). Moreover, the “Dynamic Surface Tension” value in data set [2] (0.05 wt % in water, 1 b/s) came to 35.4 dyne/cm; in data set [2] (0.05 wt % in water, 6 b/s), 37.6 dyne/cm; in data set [2] (0.05 wt % in water, 15 b/s) it was 40.9 dyne/cm; in data set [2] (0.05 wt % in water, 20 b/s), 41.9 dyne/cm; in data set [2] (0.07 wt % in water, 0.1 b/s), 32.4 dyne/cm; in data set [2] (0.07 wt % in water, 1 b/s), 33.0 dyne/cm. Also, the “Dynamic Surface Tension” value in data set [2] (0.07 wt % in water, 6 b/s) was 34.5 dyne/cm; in data set [2] (0.07 wt % in water, 15 b/s), 36.8 dyne/cm; in data set [2] (0.07 wt % in water, 20 b/s), 37.7 dyne/cm; in data set [2] (0.1 wt % in water, 0.1 b/s) it was 30.3 dyne/cm; in data set [2] (0.1 wt % in water, 1 b/s), 30.8 dyne/cm; in data set [2] (0.1 wt % in water, 6 b/s), 31.8 dyne/cm. Besides, the “Dynamic Surface Tension” value in data set [2] (0.1 wt % in water, 15 b/s) was 33.4 dyne/cm; in data set [2] (0.1 wt % in water, 20 b/s) it was 34.1 dyne/cm; in data set [2] (0.15 wt % in water, 0.1 b/s), 27.6 dyne/cm; in data set [2] (0.15 wt % in water, 1 b/s), 27.9 dyne/cm; in data set [2] (0.15 wt % in water, 6 b/s) it was 28.7 dyne/cm; in data set [2] (0.15 wt % in water, 15 b/s) it was 30.1 dyne/cm. The “Dynamic Surface Tension” value stood at 30.6 dyne/cm in data set [2] (0.15 wt % in water, 20 b/s); 26.7 dyne/cm in data set [2] (0.2 wt % in water, 0.1 b/s); 26.9 dyne/cm in data set [2] (0.2 wt % in water, 1 b/s); 27.4 dyne/cm in data set [2] (0.2 wt % in water, 6 b/s); 28.8 dyne/cm in data set [2] (0.2 wt % in water, 15 b/s); 29.3 dyne/cm in data set [2] (0.2 wt % in water, 20 b/s). The solubility limit entry in the data set “Solubility in water” is “about 0.2 wt %”.
